Patent publication US8247573B2, “Substituted N-(2-mercaptopyridin-3-yl)amides as KCNQ2/3 modulators” (Gruenenthal GmbH, priority 2009, dated 2012)
pEC50: −log10 of the molar value.

Biological target: T1, KCNQ2/3 channels (Homo sapiens, UniProt O43525+O43526)
T1 construct: expressed in transfected cells; host or cells: CHO-K1
Experiment: Fluorescence assay using a voltage-sensitive dye (fluorimetry)
Assay type: cell-based
Conditions: CHO-K1 cells expressing KCNQ2/3; for pEC50: agonistic activity; for Emax: read-out: Fluorimetry % efficacy (I/EC50, retigabine = 100%)
Description: Pharmacological Experiments Fluorescence Assay Using a Voltage-Sensitive Dye
Human CHO-K1 cells expressing KCNQ2/3 channels are cultivated adherently at 37° C., 5% CO2 and 95% humidity in cell culture bottles (e.g. 80 cm^2 TC flasks, Nunc) with DMEM-high glucose (Sigma Aldrich, D7777) including 10% FCS (PAN Biotech, e.g. 3302-P270521) or alternatively MEM Alpha Medium (1×, liquid, Invitrogen, #22571), 10% foetal calf serum (FCS) (Invitrogen, #10270-106, heat-inactivated) and the necessary selection antibiotics.
Before being seeded out for the measurements, the cells are washed with a 1×DPBS buffer without Ca^2+/Mg^2+ (e.g. Invitrogen, #14190-094) and detached from the bottom of the culture vessel by means of Accutase (PAA Laboratories, #L11-007) (incubation with Accutase for 15 min at 37° C.). The cell count then present is determined using a CASY™ cell counter (TCC model, Schärfe System) in order subsequently to apply 20,000 to 30,000 cells/well/100 μl of the described nutrient medium, depending on density optimisation for the individual cell line, to 96-well measuring plates of the Corning™ CellBIND™ type (flat clear-bottom black polystyrene microplates, #3340). Incubation is then carried out for one hour at room temperature, without gassing or adjusting the humidity, followed by incubation for 24 hours at 37° C., 5% CO2 and 95% humidity.
The voltage-sensitive fluorescent dye from the Membrane Potential Assay Kit (Red™ bulk format part R8123 for FLIPR, MDS Analytical Technologies™) is prepared by dissolving the contents of a vessel of Membrane Potential Assay Kit Red Component A in 200 ml of extracellular buffer (ES buffer, 120 mM NaCl, 1 mM KCl, 10 mM HEPES, 2 mM CaCl2, 2 mM MgCl2, 10 mM glucose; pH 7.4). After removal of the nutrient medium, the cells are washed with 200 μl of ES buffer, then covered with a layer of 100 μl of the dye solution prepared above and incubated for 45 min at room temperature with exclusion of light.
The fluorescence measurements are carried out with a BMG Labtech FLUOstar™, BMG Labtech NOVOstar™ or BMG Labtech POLARstar™ instrument (525 nm excitation, 560 nm emission, bottom-read mode). After incubation of the dye, 50 μl of the substances to be tested in the desired concentrations, or 50 μl of ES buffer for control purposes, are introduced into separate cavities of the measuring plate and incubated for 30 min at room temperature whilst being shielded from light. The fluorescence intensity of the dye is then measured for 5 min and the fluorescence value F1 of each well is thus determined at a given, constant time. 15 μl of a […] KCl solution […] are then added to each well. The change in fluorescence is subsequently measured until all relevant measured values have been obtained (mainly […]). At a given time after KCl application, a fluorescence value F2 is determined, in this case at the time of the fluorescence peak.
For calculation, the fluorescence intensity F2 is compared with the fluorescence intensity F1, and the agonistic activity of the target compound on the potassium channel is determined therefrom. F2 and F1 are calculated as follows: […]
In order to determine whether a substance has an agonistic activity,
[formula] is determined by adding to the reaction batch only the buffer solution instead of the substance to be tested, determining the value F1K of the fluorescence intensity, adding the potassium ions as described above and measuring a value F2K of the fluorescence intensity. Then F2K and F1K are calculated as follows: […]
A substance has an agonistic activity on the potassium channel if
Independently of the comparison of
[formula] it is also possible to conclude that a target compound has an agonistic activity if an increase in
[formula] is to be observed as the dosage of the target compound increases.
Calculations of EC50 values are carried out with the aid of Prism v4.0 software (GraphPad Softwares™).

[1] = relative to retigabine = 100%, negative values = antagonistic

Row | Structure (SMILES) | pEC50 | Emax [1] | Fluorimetry % efficacy (I/EC50, retigabine = 100%) [1]
1 | O=C(Nc1cccnc1SCCS(=O)(=O)c1cccc(C(F)(F)F)c1)c1ccc(Cl)nc1 [Example 35, 6-Chloro-N-[2-[2-[[3-(trifluoromethyl)phenyl]sulfonyl]-ethylsulfanyl]-pyridin-3-yl]-pyridine-3-carboxylic acid amide] | – | 43% | –
2 | O=C(Nc1cccnc1SCCS(=O)(=O)c1cccc(C(F)(F)F)c1)C1CCCOC1 (stereo not drawn) [Example 38, N-[2-[2-[[3-(Trifluoromethyl)phenyl]sulfonyl]-ethylsulfanyl]-pyridin-3-yl]-tetrahydropyrane-3-carboxylic acid amide] | – | 35% | –
3 | O=C(CC1CCCCO1)Nc1cccnc1SCCS(=O)(=O)c1cccc(C(F)(F)F)c1 (stereo not drawn) [Example 39, 2-Tetrahydropyran-2-yl-N-[2-[2-[[3-(trifluoromethyl)phenyl]sulfonyl]-ethylsulfanyl]-pyridin-3-yl]acetamide] | 6.44 | 139% | –
4 | O=C(CC1CCOCC1)Nc1cccnc1SCCS(=O)(=O)c1cccc(C(F)(F)F)c1 [Example 40, 2-Tetrahydropyran-4-yl-N-[2-[2-[[3-(trifluoromethyl)phenyl]sulfonyl]-ethylsulfanyl]-pyridin-3-yl]acetamide] | – | 52% | –
5 | O=C(CCC1CCCCC1)Nc1cccnc1SCCS(=O)(=O)c1cccc(C(F)(F)F)c1 [Example 41, 3-Cyclohexyl-N-[2-[2-[[3-(trifluoromethyl)phenyl]sulfonyl]-ethylsulfanyl]-pyridin-3-yl]propionamide] | 7.00 | 127% | –
6 | O=C(Nc1cccnc1SCCS(=O)(=O)c1cccc(C(F)(F)F)c1)c1cccc(O)c1 [Example 47, 3-Hydroxy-N-[2-[2-[[3-(trifluoromethyl)phenyl]sulfonyl]-ethylsulfanyl]-pyridin-3-yl]benzamide] | 6.58 | 95% | –
7 | O=C(Nc1cccnc1SCCS(=O)(=O)c1cccc(C(F)(F)F)c1)C1CCCCO1 (stereo not drawn) [Example 48, N-[2-[2-[[3-(Trifluoromethyl)phenyl]sulfonyl]-ethylsulfanyl]-pyridin-3-yl]-tetrahydropyrane-2-carboxylic acid amide] | 6.76 | 93% | –
8 | O=C(CC1CCCCCC1)Nc1cccnc1SCCS(=O)(=O)c1cccc(C(F)(F)F)c1 [Example 49, 2-Cycloheptyl-N-[2-[2-[[3-(trifluoromethyl)phenyl]sulfonyl]-ethylsulfanyl]-pyridin-3-yl]acetamide] | 7.72 | 108% | –
9 | O=C(Nc1cccnc1SCCS(=O)(=O)c1cccc(C(F)(F)F)c1)c1ccc(F)cc1O [Example 51, 4-Fluoro-2-hydroxy-N-[2-[2-[[3-(trifluoromethyl)phenyl]sulfonyl]-ethylsulfanyl]-pyridin-3-yl]benzamide] | 6.97 | 32% | –
10 | O=C(CC1CCc2ccccc2C1)Nc1cccnc1SCCS(=O)(=O)c1cccc(C(F)(F)F)c1 (stereo not drawn) [Example 52, 2-(1,2,3,4-Tetrahydronaphthalen-2-yl)-N-[2-[2-[[3-(trifluoromethyl)phenyl]sulfonyl]-ethylsulfanyl]-pyridin-3-yl]acetamide] | 6.68 | 59% | –
11 | O=C(Nc1cccnc1SCCS(=O)(=O)c1cccc(C(F)(F)F)c1)c1ccccc1O [Example 53, 2-Hydroxy-N-[2-[2-[[3-(trifluoromethyl)phenyl]sulfonyl]-ethylsulfanyl]-pyridin-3-yl]benzamide] | – | 27.4% | –
12 | O=C1CCCC(CC(=O)Nc2cccnc2SCCS(=O)(=O)c2cccc(C(F)(F)F)c2)C1 (stereo not drawn) [Example 55, 2-(3-Oxocyclohexyl)-N-[2-[2-[[3-(trifluoromethyl)phenyl]sulfonyl]-ethylsulfanyl]-pyridin-3-yl]acetamide] | 5.44 | 84.8% | –
13 | O=C(CCC1CCc2ccccc2C1)Nc1cccnc1SCCS(=O)(=O)c1cccc(C(F)(F)F)c1 (stereo not drawn) [Example 57, 3-(1,2,3,4-Tetrahydronaphthalen-2-yl)-N-[2-[2-[[3-(trifluoromethyl)phenyl]sulfonyl]-ethylsulfanyl]-pyridin-3-yl]propionamide] | 7.25 | 134% | –
14 | O=C(CCC1CCCCCC1)Nc1cccnc1SCCS(=O)(=O)c1cccc(C(F)(F)F)c1 [Example 58, 3-Cycloheptyl-N-[2-[2-[[3-(trifluoromethyl)phenyl]sulfonyl]-ethylsulfanyl]-pyridin-3-yl]propionamide] | 7.32 | 167% | –
15 | CC(C)(C)CC(=O)Nc1cccnc1SCCSc1ccc(F)cc1 [Example 61, N-[2-[2-[(4-Fluorophenyl)sulfanyl]-ethylsulfanyl]-pyridin-3-yl]-3,3-dimethyl butyramide] | 7.56 | 129% | –
16 | O=C(CC1CC2CCC1C2)Nc1cccnc1SCCS(=O)(=O)c1cccc(C(F)(F)F)c1 (stereo not drawn) [Example 62, 2-(5-Bicyclo[2.2.1]heptanyl)-N-[2-[2-[[3-(trifluoromethyl)phenyl]sulfonyl]-ethylsulfanyl]-pyridin-3-yl]acetamide] | 7.63 | 168% | –

Second part, the molecule after the results:

Row | pEC50 | Emax [1] | Fluorimetry % efficacy (I/EC50, retigabine = 100%) [1] | Structure (SMILES)
17 | 6.85 | 106% | – | O=C(Cc1cccs1)Nc1cccnc1SCCCc1ccccc1 [Example 33, N-[2-(3-Phenyl-propylsulfanyl)-pyridin-3-yl]-2-thiophen-2-yl acetamide]
18 | – | 38% | – | O=C(Cc1ccncc1)Nc1cccnc1SCCS(=O)(=O)c1cccc(C(F)(F)F)c1 [Example 36, 2-Pyridin-4-yl-N-[2-[2-[[3-(trifluoromethyl)phenyl]sulfonyl]-ethylsulfanyl]-pyridin-3-yl]acetamide]
19 | – | 31% | – | O=C(Cc1cccc(O)c1)Nc1cccnc1SCCS(=O)(=O)c1cccc(C(F)(F)F)c1 [Example 37, 2-(3-Hydroxyphenyl)-N-[2-[2-[[3-(trifluoromethyl)phenyl]sulfonyl]-ethylsulfanyl]-pyridin-3-yl]acetamide]
20 | 6.82 | 80% | – | O=C(CC1CCCCC1)Nc1cccnc1SCCSc1ccccc1 [Example 44, 2-Cyclohexyl-N-[2-(2-phenylsulfanyl-ethylsulfanyl)-pyridin-3-yl]acetamide]
21 | – | – | 58% | O=C(Cc1cccs1)Nc1cccnc1SCCOc1ccccc1 [Example 45, N-[2-(2-Phenoxy-ethylsulfanyl)-pyridin-3-yl]-2-thiophen-2-yl acetamide]
22 | – | 50% | – | O=C(Cc1cccnc1)Nc1cccnc1SCCS(=O)(=O)c1cccc(C(F)(F)F)c1 [Example 46, 2-Pyridin-3-yl-N-[2-[2-[[3-(trifluoromethyl)phenyl]sulfonyl]-ethylsulfanyl]-pyridin-3-yl]acetamide]
23 | 6.46 | 98.1% | – | Cc1ccnc(SCCS(=O)(=O)c2cccc(C(F)(F)F)c2)c1NC(=O)Cc1cccs1 [Example 56, N-[4-Methyl-2-[2-[[3-(trifluoromethyl)phenyl]sulfonyl]-ethylsulfanyl]-pyridin-3-yl]-2-thiophen-2-yl acetamide]
24 | 6.03 | 139% | – | O=C(Cc1cc2ccccc2s1)Nc1cccnc1SCCS(=O)(=O)c1cccc(C(F)(F)F)c1 [Example 59, 2-(Benzo[b]thiophen-2-yl)-N-[2-[2-[[3-(trifluoromethyl)phenyl]sulfonyl]-ethylsulfanyl]-pyridin-3-yl]acetamide]
25 | 5.99 | 101% | – | O=C(Cc1ccccn1)Nc1cccnc1SCCS(=O)(=O)c1cccc(C(F)(F)F)c1 [Example 60, 2-Pyridin-2-yl-N-[2-[2-[[3-(trifluoromethyl)phenyl]sulfonyl]-ethylsulfanyl]-pyridin-3-yl]acetamide]
